According to PubChem BioAssay (NCI):
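Exposure lasted 48 hours, with cells grown in 96-well plates and compounds tested at five concentrations. At the GI50, growth is halved. TGI marks complete inhibition of growth.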

How the values were obtained:
Assay in all cases: DTP human tumour cell line panel, 48 h
SR leukemia = system: SR leukemia
SF-295 CNS = system: SF-295 CNS
PC-3 prostate = system: PC-3 prostate
TK-10 renal = system: TK-10 renal
HT29 colon = system: HT29 colon
HS 578T breast = system: HS 578T breast
COLO 205 colon = system: COLO 205 colon
U251 CNS = system: U251 CNS
SK-MEL-2 melanoma = system: SK-MEL-2 melanoma
SK-OV-3 ovarian = system: SK-OV-3 ovarian
MALME-3M melanoma = system: MALME-3M melanoma
OVCAR-5 ovarian = system: OVCAR-5 ovarian
NCI-H522 lung = system: NCI-H522 lung
HL-60(TB) leukemia = system: HL-60(TB) leukemia
MOLT-4 leukemia = system: MOLT-4 leukemia
IGROV1 ovarian = system: IGROV1 ovarian
K-562 leukemia = system: K-562 leukemia
UACC-62 melanoma = system: UACC-62 melanoma
BT-549 breast = system: BT-549 breast
SN12C renal = system: SN12C renal
HOP-92 NSCLC = system: HOP-92 NSCLC
SNB-75 CNS = system: SNB-75 CNS
SK-MEL-28 melanoma = system: SK-MEL-28 melanoma
NCI-H226 lung = system: NCI-H226 lung
MCF7 breast = system: MCF7 breast
OVCAR-4 ovarian = system: OVCAR-4 ovarian
ACHN renal = system: ACHN renal
RXF 393 renal = system: RXF 393 renal
HCT-116 colon = system: HCT-116 colon
HCT-15 colon = system: HCT-15 colon
HCC-2998 colon = system: HCC-2998 colon
A549 NSCLC = system: A549 NSCLC
UACC-257 melanoma = system: UACC-257 melanoma
OVCAR-8 ovarian = system: OVCAR-8 ovarian
DU-145 prostate = system: DU-145 prostate
KM12 colon = system: KM12 colon
NCI-H460 lung = system: NCI-H460 lung
T-47D breast = system: T-47D breast
A498 renal = system: A498 renal
NCI-H23 lung = system: NCI-H23 lung
MDA-MB-435 = system: MDA-MB-435
CAKI-1 renal = system: CAKI-1 renal
UO-31 renal = system: UO-31 renal
SF-268 CNS = system: SF-268 CNS
786-0 renal = system: 786-0 renal
HOP-62 NSCLC = system: HOP-62 NSCLC
RPMI-8226 leukemia = system: RPMI-8226 leukemia
SF-539 CNS = system: SF-539 CNS
SW-620 colon = system: SW-620 colon
CCRF-CEM leukemia = system: CCRF-CEM leukemia
SK-MEL-5 melanoma = system: SK-MEL-5 melanoma
NCI/ADR-RES ovarian = system: NCI/ADR-RES ovarian
OVCAR-3 ovarian = system: OVCAR-3 ovarian
LOX IMVI melanoma = system: LOX IMVI melanoma
MDA-MB-231 breast = system: MDA-MB-231 breast
SNB-19 CNS = system: SNB-19 CNS
M14 melanoma = system: M14 melanoma

Work on `Cn1cc(C2=C(N3CCOCC3)C(=O)NC2=O)c2ccccc21` yielded a GI50 (SR leukemia) greater than 25 µM, a TGI (SR leukemia) greater than 25 µM and a GI50 (SF-295 CNS) greater than 25 µM. For the same molecule, the TGI (SF-295 CNS) was greater than 25 µM, the GI50 (PC-3 prostate) was greater than 25 µM and the TGI (PC-3 prostate) was greater than 25 µM. The GI50 (TK-10 renal) was greater than 25 µM, the TGI (TK-10 renal) was greater than 25 µM and the GI50 (HT29 colon) was greater than 25 µM. For the same molecule, the TGI (HT29 colon) was greater than 25 µM, the GI50 (HS 578T breast) was greater than 25 µM and the TGI (HS 578T breast) was greater than 25 µM. It also gave a GI50 (COLO 205 colon) greater than 25 µM, a TGI (COLO 205 colon) greater than 25 µM and a GI50 (U251 CNS) greater than 25 µM. It also gave a TGI (U251 CNS) greater than 25 µM, a GI50 (SK-MEL-2 melanoma) greater than 25 µM and a TGI (SK-MEL-2 melanoma) greater than 25 µM. The GI50 (SK-OV-3 ovarian) was greater than 25 µM, the TGI (SK-OV-3 ovarian) was greater than 25 µM and the GI50 (MALME-3M melanoma) was greater than 25 µM. It also gave a TGI (MALME-3M melanoma) greater than 25 µM, a GI50 (OVCAR-5 ovarian) greater than 25 µM and a TGI (OVCAR-5 ovarian) greater than 25 µM. For the same molecule, the GI50 (NCI-H522 lung) was greater than 25 µM, the TGI (NCI-H522 lung) was greater than 25 µM and the GI50 (HL-60(TB) leukemia) was greater than 25 µM. The TGI (HL-60(TB) leukemia) was greater than 25 µM, the GI50 (MOLT-4 leukemia) was greater than 25 µM and the TGI (MOLT-4 leukemia) was greater than 25 µM. For the same molecule, the GI50 (IGROV1 ovarian) was greater than 25 µM, the TGI (IGROV1 ovarian) was greater than 25 µM and the GI50 (K-562 leukemia) was greater than 25 µM. For the same molecule, the TGI (K-562 leukemia) was greater than 25 µM, the GI50 (UACC-62 melanoma) was greater than 25 µM and the TGI (UACC-62 melanoma) was greater than 25 µM. For the same molecule, the GI50 (BT-549 breast) was greater than 25 µM, the TGI (BT-549 breast) was greater than 25 µM and the GI50 (SN12C renal) was greater than 25 µM. It also gave a TGI (SN12C renal) greater than 25 µM, a GI50 (HOP-92 NSCLC) of 14.7 µM and a TGI (HOP-92 NSCLC) greater than 25 µM. It also gave a GI50 (SNB-75 CNS) greater than 25 µM, a TGI (SNB-75 CNS) greater than 25 µM and a GI50 (SK-MEL-28 melanoma) greater than 25 µM. For the same molecule, the TGI (SK-MEL-28 melanoma) was greater than 25 µM, the GI50 (NCI-H226 lung) was greater than 25 µM and the TGI (NCI-H226 lung) was greater than 25 µM. It also gave a GI50 (MCF7 breast) greater than 25 µM, a TGI (MCF7 breast) greater than 25 µM and a GI50 (OVCAR-4 ovarian) greater than 25 µM. For the same molecule, the TGI (OVCAR-4 ovarian) was greater than 25 µM, the GI50 (ACHN renal) was greater than 25 µM and the TGI (ACHN renal) was greater than 25 µM. The GI50 (RXF 393 renal) was greater than 25 µM, the TGI (RXF 393 renal) was greater than 25 µM and the GI50 (HCT-116 colon) was greater than 25 µM. It also gave a TGI (HCT-116 colon) greater than 25 µM, a GI50 (HCT-15 colon) greater than 25 µM and a TGI (HCT-15 colon) greater than 25 µM. It also gave a GI50 (HCC-2998 colon) greater than 25 µM, a TGI (HCC-2998 colon) greater than 25 µM and a GI50 (A549 NSCLC) greater than 25 µM. For the same molecule, the TGI (A549 NSCLC) was greater than 25 µM, the GI50 (UACC-257 melanoma) was greater than 25 µM and the TGI (UACC-257 melanoma) was greater than 25 µM. The GI50 (OVCAR-8 ovarian) was greater than 25 µM, the TGI (OVCAR-8 ovarian) was greater than 25 µM and the GI50 (DU-145 prostate) was greater than 25 µM. It also gave a TGI (DU-145 prostate) greater than 25 µM, a GI50 (KM12 colon) greater than 25 µM and a TGI (KM12 colon) greater than 25 µM. It also gave a GI50 (NCI-H460 lung) greater than 25 µM, a TGI (NCI-H460 lung) greater than 25 µM and a GI50 (T-47D breast) greater than 25 µM. It also gave a TGI (T-47D breast) greater than 25 µM, a GI50 (A498 renal) greater than 25 µM and a TGI (A498 renal) greater than 25 µM. It also gave a GI50 (NCI-H23 lung) greater than 25 µM, a TGI (NCI-H23 lung) greater than 25 µM and a GI50 (MDA-MB-435) greater than 25 µM. The TGI (MDA-MB-435) was greater than 25 µM, the GI50 (CAKI-1 renal) was greater than 25 µM and the TGI (CAKI-1 renal) was greater than 25 µM. For the same molecule, the GI50 (UO-31 renal) was greater than 25 µM, the TGI (UO-31 renal) was greater than 25 µM and the GI50 (SF-268 CNS) was greater than 25 µM. It also gave a TGI (SF-268 CNS) greater than 25 µM, a GI50 (786-0 renal) greater than 25 µM and a TGI (786-0 renal) greater than 25 µM. It also gave a GI50 (HOP-62 NSCLC) greater than 25 µM, a TGI (HOP-62 NSCLC) greater than 25 µM and a GI50 (RPMI-8226 leukemia) greater than 25 µM. It also gave a TGI (RPMI-8226 leukemia) greater than 25 µM, a GI50 (SF-539 CNS) greater than 25 µM and a TGI (SF-539 CNS) greater than 25 µM. It also gave a GI50 (SW-620 colon) greater than 25 µM, a TGI (SW-620 colon) greater than 25 µM and a GI50 (CCRF-CEM leukemia) greater than 25 µM. For the same molecule, the TGI (CCRF-CEM leukemia) was greater than 25 µM, the GI50 (SK-MEL-5 melanoma) was greater than 25 µM and the TGI (SK-MEL-5 melanoma) was greater than 25 µM. It also gave a GI50 (NCI/ADR-RES ovarian) greater than 25 µM, a TGI (NCI/ADR-RES ovarian) greater than 25 µM and a GI50 (OVCAR-3 ovarian) greater than 25 µM. The TGI (OVCAR-3 ovarian) was greater than 25 µM, the GI50 (LOX IMVI melanoma) was greater than 25 µM and the TGI (LOX IMVI melanoma) was greater than 25 µM. The GI50 (MDA-MB-231 breast) was greater than 25 µM, the TGI (MDA-MB-231 breast) was greater than 25 µM and the GI50 (SNB-19 CNS) was greater than 25 µM. The TGI (SNB-19 CNS) was greater than 25 µM, the GI50 (M14 melanoma) was greater than 25 µM and the TGI (M14 melanoma) was greater than 25 µM.
